Key:
[1] = cited from earlier work
[2] = Membrane efficiency screening test (membrane efficiency screening equipment); settings: about 25° Celsius, about 15 MPa
Protocol: Two types of test equipment are used for the present invention: (i) membrane efficiency screening equipment for tests conducted at 25° Celsius and the test solution at 15 MPa, and (ii) autonomous triaxial test equipment for tests conducted at temperatures above 25° Celsius and/or the test solution at 35 MPa.
The membrane efficiency screening equipment has six test cells. Six different test solutions can be tested under simulated downhole pressure conditions, at any one time with independent, individual test cell control. Referring to FIG. 4, the parts of the cell are shown as follows: Cell-1; Base-2; Bleed Port-3; Confining Fluid Port-4; Downstream Pressure Line (pore fluid)-5; Upstream Pressure Line (test solution)-6; Knurl-7; Top Platen-8; Membrane-9; Sample-10; Bottom Platen-11; O-Rings-12; Collar-13; and Seal-14.
The cell of FIG. 4 has a confining pressure and pore pressure capacity of 35 MPa and 20 MPa respectively. The confining pressure is applied with a Haskel pump and controlled with a high precision stepping motor pump control system. […] Two separate high-pressure gas cylinders provide the upstream and downstream pressures which are controlled by high pressure regulators.
The test procedures for the membrane efficiency screening equipment are as follows: • (a) bleed top (downstream) and bottom (upstream) platens 8 and 11 with simulated pore fluid; • (b) place a sample 10 (25 mm diameter and approximately 10 mm long) between the platens 8 and 11; • (c) jacket the sample in a 1.0 mm thick Viton membrane 9; • (d) mount O-rings 12 over the jacket on the platens 8 and 11; • (e) mount the cell 1; • (f) fill the cell 1 with water; • (g) apply a confining pressure of 20 MPa (via port 4); • (h) apply a back (upstream) pressure of 10 MPa (via line 6) and check for flow across the (upstream) platen 8; • (i) open the downstream pressure valve (on line 5) if the (downstream) pressure is less than 10 MPa; • (j) when the downstream pressure has stabilised at 10 MPa (pressure change <50 kPa/hour, i.e. sample has consolidated), increase the upstream pressure to 15 MPa; • (k) when the downstream pressure has increased by at least 2 MPa (pressure transmitted from the upstream end), reduce the upstream pressure to 10 MPa; • (l) when the downstream pressure has stabilised at 10 MPa (pressure change <50 kPa/hour, i.e. sample has reconsolidated), displace the pore fluid at the upstream end with the test solution at 15 MPa (water activity of test solution is not reduced with electrolyte, i.e. essentially the same as that of the shale); • (m) when the downstream pressure has increased and stabilised (pressure transmitted from the upstream end), displace the test solution (at the upstream end) with the lower water activity solution; • (n) adjust the lower water activity solution circulation rate; and • (o) terminate the test when a maximum decrease in the downstream pressure is observed.
The membrane efficiency obtained from a test is defined as percentage ratio of the maximum differential pressure developed across the shale sample (upstream pressure minus minimum downstream pressure during chemical potential stage) and the theoretical osmotic pressure of the test solution-shale system. The theoretical osmotic pressure is given by: [formula] where Π=osmotic pressure (kPa) • R=gas constant (0.083 liter atm mol^−1 ° K^−1) • T=absolute temperature (° K) • V=partial molar volume of water (0.018 litre mol^−1) • Asol=water activity of lower water activity solution • Ash=water activity of shale

[3] = Phase transition to a hexagonal phase (aqueous concentration); format: physicochemical; settings: about pH 10; about 25° Celsius
[4] = Membrane efficiency test in autonomous triaxial test equipment (temperatures above 25° Celsius and/or 35 MPa)
Protocol: Based on the aforementioned fundamental understanding of the membrane generation mechanisms for acid-base species, we have discovered a range of novel compounds for use in water-based drilling fluids that have the capacity to generate a highly efficient membrane on the borehole wall in argillaceous formations. […] Two types of test equipment are used for the present invention: (i) membrane efficiency screening equipment for tests conducted at 25° Celsius and the test solution at 15 MPa, and (ii) autonomous triaxial test equipment for tests conducted at temperatures above 25° Celsius and/or the test solution at 35 MPa.
Referring to FIG. 5, the parts of the cell are shown as follows: Top Plate-20; Bottom Platen-21; Load Cell-22; Top Cap-23; Downstream Pore Pressure Port-24; Removable Cell Body-25; Radial Gauges-26; LVDT-27; Upstream Pore Pressure Port-28; Clamping Ring-29; Upstream Flush Pressure Port-30; O-Ring-31; Membrane-32; Temperature Sensor-33; and Sample 34.
The cell of FIG. 5 has a confining pressure and pore pressure capacity of 70 MPa.
The instruments used to measure the behaviour of the test sample 34 are as follows: • (a) two diametrically-opposed LVDTs (Linear Variable Differential Transformers) 27 mounted between the sample end platens to measure axial deformation of the sample 34; • (b) four cantilever (orthogonal) radial gauges 26 mounted at mid-height of the sample 34 to measure radial deformation; • (c) two thermal sensors 33 to measure sample 34 top and bottom temperatures; • (d) a load cell 22 located underneath the bottom platen 21 to measure axial deviatoric load (not used); • (e) a pressure transducer to measure cell (confining) pressure; and • (f) two pressure transducers to measure pore pressure at both ends of the sample 34.
A computer-controlled system was used to control the cell and pore pressures with stepping motor pumps, and to perform data acquisition. During the test, the cell temperature was maintained constant by placing the autonomous triaxial cell in a temperature-controlled oven. […]

For C[Si](O)(O)O [methyl silanetriol], the pKa [1] is given as “about 11”.

For Oc1ccc2ccccc2c1 [2-naphthol], the “Change of membrane generation capacity with pH” value (shortened to “Change”) ([2]; for a given concentration) was “did not change significantly between the pH range”.

In the case of CCCCCCCC/C=C\CCCCCCCC(=O)[O-].C[N+](C)(C)C [Tetramethylammonium oleate], the Membrane efficiency ([2]; about 5 to about 10 wt %, pH about 9, water activity reduced with 33.4 wt % tetramethylammonium chloride) is reported as “up to 44%” and the “Concentration at which phase transition to a hexagonal phase occurs” value [3] is reported as “about 20 wt %”.

For Potassium methyl siliconate, the “Effect of temperature on membrane generation capacity” value ([4]; temperature up to about 80° Celsius) was “not significantly affected by temperature of up to about 80° Celsius”, the “Effect of test solution pressure on membrane generation capacity” value ([4]; test solutions at about 35 MPa) was “only slightly reduced” and the Membrane efficiency ([4]; test solutions at about 35 MPa, about 40° Celsius to about 80° Celsius) was “approximately 54%”. The Membrane efficiency ([2]; about 5 to about 10 wt %, pH about 11.95 to about 12.8, 12, 15 or 20 wt % sodium chloride) was “up to 80%” and the “Change” value ([2]; for a given concentration) was “increased greatly when pH was reduced from about 12.8 to about 11.95”.

With CCCCCCCCCCCC(=O)[O-].C[N+](C)(C)C [tetramethylammonium laurate] the Membrane efficiency ([2]; about 5 to about 10 wt %, pH about 7.6 to about 11.5, water activity reduced with 33.4 wt % tetramethylammonium chloride) was “up to 57%”, the “Change” value ([2]; for a given concentration) was “increased significantly when pH was increased from about 7.6 to about 11.5” and the “Concentration at which phase transition to a hexagonal phase occurs” value [3] was “about 20 wt %”.

With silicic acid the “Change” value ([2]; about 1 wt % and about 2.5 wt %) was “essentially the same between pH of about 11.15 and about 12.5”, the “Change” value ([2]; about 5 wt % to about 10 wt %) was “increases with increase in pH” and the Membrane efficiency ([2]; all concentrations evaluated (about 1 to about 10 wt %), pH about 11.15 to about 12.5, 12 wt % sodium chloride) was greater than 70%.

In the case of C[N+](C)(C)C.[Cl-] [tetramethylammonium chloride, reference compound], the Membrane efficiency ([2]; stock solution about 33.4 wt % tetramethylammonium chloride, pH not adjusted) is reported as “about 8%”.

For [Cl-].[K+] [potassium chloride, reference compound], the Membrane efficiency ([2]; stock solution about 26.3 wt % potassium chloride, pH not adjusted) was “about 9%”.

With sodium methyl siliconate the Membrane efficiency ([2]; about 5 to about 10 wt %, pH about 11.9 to about 12.6, 12 wt % sodium chloride or 16 wt % potassium chloride) was “up to 86%” and the “Change” value ([2]; for a given concentration) was “increased greatly when pH was reduced from about 12.6 to about 11.9”.
